Reference: the supplement of paper PMC10307832

How the values were obtained:
Assay in all cases: relative viability (nuclei count vs DMSO), 5 days (fraction); higher = more cells survive
[1] = compound: CC(C)C[C@@H](C(=O)N[C@H](C(=O)OC1CCCC1)c1ccccc1)[C@H](O)C(=O)NO [Tosedostat] + CC(=O)c1c(C)c2cnc(Nc3ccc(N4CCNCC4)cn3)nc2n(C2CCCC2)c1=O [Palbociclib] (partner 0.5 µM)
Outline: (§1)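 Relative viability is defined as nuclei in treated wells over nuclei in vehicle wells. Duplicate plates were run and medians reported. Lung cancer cell lines in 1536-well plates were dosed by pin tool one day after seeding, with one drug or with a fixed anchor-drug dose plus five library-drug doses (not always all listed) in √10 steps, and nuclei were counted after 5 days.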

[2] = compound: CC1=NN=C(O1)C2=NN=C(C=C2)N3CCC(CC3)OC4=C(C=CC(=C4)F)Cl + CC(=O)c1c(C)c2cnc(Nc3ccc(N4CCNCC4)cn3)nc2n(C2CCCC2)c1=O [Palbociclib] (partner 0.5 µM)
Outline: as §1

[3] = compound: CC1=NN=C(O1)C2=NN=C(C=C2)N3CCC(CC3)OC4=C(C=CC(=C4)F)Cl + CS(=O)(=O)N1CCN(Cc2cc3nc(-c4cccc5[nH]ncc45)nc(N4CCOCC4)c3s2)CC1 [Pictilisib] (partner 1 µM)
Outline: as §1

[4] = compound: CC1=NN=C(O1)C2=NN=C(C=C2)N3CCC(CC3)OC4=C(C=CC(=C4)F)Cl + O=C(c1cc(Cc2n[nH]c(=O)c3ccccc23)ccc1F)N1CCN(C(=O)C2CC2)CC1 [Olaparib] (partner 8 µM)
Outline: as §1

| Cell Line | relative viability ([1]; first compound 0.02 µM) | relative viability ([1]; first compound 0.06325 µM) | relative viability ([1]; first compound 0.2 µM) | relative viability ([1]; first compound 0.6325 µM) | relative viability ([1]; first compound 2 µM) | relative viability ([2]; first compound 0.253 µM) | relative viability ([2]; first compound 0.8 µM) | relative viability ([2]; first compound 2.53 µM) | relative viability ([2]; first compound 8 µM) | relative viability ([3]; first compound 0.253 µM) | relative viability ([3]; first compound 0.8 µM) | relative viability ([3]; first compound 2.53 µM) | relative viability ([3]; first compound 8 µM) | relative viability ([4]; first compound 0.253 µM) | relative viability ([4]; first compound 0.8 µM) | relative viability ([4]; first compound 2.53 µM) | relative viability ([4]; first compound 8 µM) |
| --- | --- | --- | --- | --- | --- | --- | --- | --- | --- | --- | --- | --- | --- | --- | --- | --- | --- |
| HCC-827 | 0.421 | 0.536 | 0.505 | 0.466 | 0.502 | 0.317 | 0.283 | 0.355 | 0.3 | 0.544 | 0.571 | 0.609 | 0.605 | 0.396 | 0.242 | 0.401 | 0.386 |
| HOP-62 | 0.478 | 0.467 | 0.463 | 0.462 | 0.439 | 0.351 | 0.356 | 0.265 | 0.212 | 0.652 | – | 0.645 | 0.331 | 0.388 | 0.116 | 0.192 | 0.279 |
| IA-LM | – | – | – | – | – | – | – | – | – | 0.173 | 0.195 | 0.203 | 0.187 | 0.114 | 0.12 | 0.131 | 0.121 |
| LC-2-ad | 0.49 | 0.496 | 0.525 | 0.446 | 0.529 | 0.215 | 0.216 | 0.239 | 0.202 | 0.423 | 0.416 | 0.4 | 0.386 | 0.297 | 0.257 | 0.255 | 0.238 |
| LCLC-97TM1 | 0.227 | 0.184 | 0.185 | 0.221 | 0.194 | 0.184 | – | 0.164 | 0.19 | 0.234 | – | 0.213 | 0.239 | 0.369 | – | 0.267 | 0.258 |
| LCLC-103H | 0.447 | 0.483 | 0.456 | 0.504 | 0.486 | 0.343 | 0.32 | 0.321 | 0.343 | 0.556 | 0.479 | 0.567 | 0.473 | 0.512 | 0.509 | 0.514 | 0.465 |
| LK-2 | 0.768 | 0.702 | 0.721 | 0.739 | 0.909 | 0.739 | 0.818 | 0.772 | 0.614 | 0.651 | 0.716 | 0.869 | 0.751 | 0.757 | 0.58 | 0.655 | 0.672 |
| LOU-NH91 | 0.549 | 0.458 | 0.545 | 0.559 | 0.528 | – | 0.535 | 0.478 | 0.632 | – | 0.519 | 0.55 | 0.499 | – | 0.818 | 0.879 | 0.883 |
| LU99A | 0.428 | 0.449 | 0.476 | 0.376 | 0.325 | 0.402 | 0.484 | 0.443 | 0.418 | 0.303 | 0.327 | 0.304 | 0.34 | 0.214 | 0.294 | 0.277 | 0.299 |
| LXF-289 | 0.653 | 0.608 | 0.612 | 0.665 | 0.625 | 0.524 | 0.549 | 0.531 | 0.458 | 0.69 | 0.718 | 0.687 | 0.6 | 0.829 | 0.632 | 0.902 | 0.788 |
